In test [1] the target is E3 ubiquitin-protein ligase Mdm2 (Homo sapiens, UniProt Q00987). Put plainly: Binding affinity to MDM2 (unknown origin) assessed as inhibition of interaction with p53 after 1 hr by fluorescence polarization binding assay. A general note: Polarisation of emitted light reports the rotation of a fluorescent probe.
The test system of a further test is A549. Put plainly: Induction of p53 level in human A549 cells after 4 hrs by Western blotting analysis. Type of test: functional, cell-based.

Molecules are shown by their SMILES.

E3 ubiquitin-protein ligase Mdm2, sequence (Q00987 whole entry): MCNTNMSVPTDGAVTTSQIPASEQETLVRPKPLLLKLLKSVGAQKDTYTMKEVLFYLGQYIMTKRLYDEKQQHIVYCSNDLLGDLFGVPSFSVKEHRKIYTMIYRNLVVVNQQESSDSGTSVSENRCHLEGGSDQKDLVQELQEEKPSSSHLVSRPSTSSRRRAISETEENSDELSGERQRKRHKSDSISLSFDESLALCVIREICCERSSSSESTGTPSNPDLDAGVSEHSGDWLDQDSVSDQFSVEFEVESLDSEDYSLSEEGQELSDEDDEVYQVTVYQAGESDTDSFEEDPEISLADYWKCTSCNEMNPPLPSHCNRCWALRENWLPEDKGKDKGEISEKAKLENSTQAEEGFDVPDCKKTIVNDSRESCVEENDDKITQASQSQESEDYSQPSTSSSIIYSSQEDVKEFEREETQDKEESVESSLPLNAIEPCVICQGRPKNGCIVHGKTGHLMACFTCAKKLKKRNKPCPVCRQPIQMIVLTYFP

The term Ki denotes a dissociation constant, usually derived from enzyme kinetics or from competition with a known ligand. Consider `CC(C)OC1=C(C(=O)c2ccccc2)C(c2ccc(Br)cc2)N(Cc2ccc(C(F)(F)F)cc2OC(C)C)C1=O` (stereo not given), for which the Ki in test [1] is over 100 µM.
As to `COc1cc(C(F)(F)F)ccc1CN1C(=O)C(N[C@H](C)c2ccccc2)=C(C(=O)c2ccccc2)C1c1ccc(Br)cc1` (stereo not given in full), the Ki in test [1] is over 100 µM.
For the molecule `C[C@@H](NC1=C(C(=O)c2ccccc2)C(c2ccc(Br)cc2)N(Cc2ccc(C(F)(F)F)cc2F)C1=O)c1ccccc1` (stereo not given in full), the Ki in test [1] was over 100 µM.
On to `CC(C)Oc1cc(C(F)(F)F)ccc1CN1C(=O)C(N[C@H](C)c2ccccc2)=C(C(=O)c2ccccc2)C1c1ccc(Br)cc1` (stereo not given in full), for which the Activity result in the test with A549 is “Dose-dependent effect”.
As for `CC(C)OC1=C(C(=O)c2ccccc2)C(c2ccc(Br)cc2)N(Cc2ccc(C(F)(F)F)cc2F)C1=O` (stereo not given), the Ki in test [1] was over 100 µM.

Source of the values: ChEMBL document CHEMBL3286092, “Discovery of 1-arylpyrrolidone derivatives as potent p53-MDM2 inhibitors based on molecule fusing strategy” (Bioorg Med Chem Lett, 2014).
